From BindingDB's records for doi:10.1021/acsmedchemlett.8b00158 (Utah State University, 2018)

Assay: Inhibition of recombinant human Cx26 expressed in Escherichia coli LB2003 assessed as reduction in cell growth measured after 18 hrs

Going from `CCCCCCOC[C@H]1O[C@@H](O[C@@H]2[C@@H](O)[C@H](O[C@H]3O[C@H](CN)[C@@H](O)[C@H](O)[C@H]3O)[C@@H](N)C[C@H]2N)[C@H](O)[C@@H](N)[C@@H]1OCCCCCC` to `CCCCCCCCOC[C@H]1O[C@@H](O[C@@H]2[C@@H](O)[C@H](O[C@H]3O[C@H](CN)[C@@H](O)[C@H](O)[C@H]3O)[C@@H](N)C[C@H]2N)[C@H](O)[C@@H](N)[C@@H]1OCCCCCCCC`, the IC50 rises from 6.2 µM to 13.6 µM (2.2-fold).

`CCCCCCCCCOC[C@H]1O[C@@H](O[C@@H]2[C@@H](O)[C@H](O[C@H]3O[C@H](CN)[C@@H](O)[C@H](O)[C@H]3O)[C@@H](N)C[C@H]2N)[C@H](O)[C@@H](N)[C@@H]1OCCCCCCCCC` and `CCCCOC[C@H]1O[C@@H](O[C@@H]2[C@@H](O)[C@H](O[C@H]3O[C@H](CN)[C@@H](O)[C@H](O)[C@H]3O)[C@@H](N)C[C@H]2N)[C@H](O)[C@@H](N)[C@@H]1OCCCC` are within 1.5-fold of each other in IC50: 18.8 µM for the first, 19 µM for the second.

Compared with `NC[C@H]1O[C@H](O[C@H]2[C@H](O)[C@@H](O[C@@H]3O[C@H](COCc4ccc(F)cc4)[C@@H](OCc4ccc(F)cc4)[C@H](N)[C@H]3O)[C@H](N)C[C@@H]2N)[C@H](O)[C@@H](O)[C@@H]1O`, `Cc1ccc(COC[C@H]2O[C@@H](O[C@@H]3[C@@H](O)[C@H](O[C@H]4O[C@H](CN)[C@@H](O)[C@H](O)[C@H]4O)[C@@H](N)C[C@H]3N)[C@H](O)[C@@H](N)[C@@H]2OCc2ccc(C)cc2)cc1` is 1.9-fold lower in IC50: 8.1 µM for the first, 4.3 µM for the second.

`NC[C@H]1O[C@H](O[C@H]2[C@H](O)[C@@H](O[C@@H]3O[C@H](COCc4cccc5ccccc45)[C@@H](OCc4cccc5ccccc45)[C@H](N)[C@H]3O)[C@H](N)C[C@@H]2N)[C@H](O)[C@@H](O)[C@@H]1O` and `NC[C@H]1O[C@H](O[C@H]2[C@H](O)[C@@H](O[C@@H]3O[C@H](COCc4ccc5ccccc5c4)[C@@H](OCc4ccc5ccccc5c4)[C@H](N)[C@H]3O)[C@H](N)C[C@@H]2N)[C@H](O)[C@@H](O)[C@@H]1O` are within 1.5-fold of each other in IC50: 6.6 µM for the first, 4.9 µM for the second.

Going from `CCCCCCO[C@H]1[C@H](N)[C@@H](O)[C@H](O[C@@H]2[C@@H](O)[C@H](O[C@H]3O[C@H](CN)[C@@H](O)[C@H](O)[C@H]3O)[C@@H](N)C[C@H]2N)O[C@@H]1CO` to `NC[C@H]1O[C@H](O[C@H]2[C@H](O)[C@@H](O[C@@H]3O[C@H](COCc4ccc(Cl)cc4)[C@@H](OCc4ccc(Cl)cc4)[C@H](N)[C@H]3O)[C@H](N)C[C@@H]2N)[C@H](O)[C@@H](O)[C@@H]1O`, the IC50 falls from 13.5 µM to 2.5 µM (5.4-fold). The second is the more potent here.

Compared with `COc1ccc(COC[C@H]2O[C@@H](O[C@@H]3[C@@H](O)[C@H](O[C@H]4O[C@H](CN)[C@@H](O)[C@H](O)[C@H]4O)[C@@H](N)C[C@H]3N)[C@H](O)[C@@H](N)[C@@H]2OCc2ccc(OC)cc2)cc1`, `NC[C@H]1O[C@H](O[C@H]2[C@H](O)[C@@H](O[C@@H]3O[C@H](COCc4cccc(-c5ccccc5)c4)[C@@H](OCc4cccc(-c5ccccc5)c4)[C@H](N)[C@H]3O)[C@H](N)C[C@@H]2N)[C@H](O)[C@@H](O)[C@@H]1O` is 2.1-fold lower in IC50: 13 µM for the first, 6.2 µM for the second.

For `CO[C@@H]1[C@@H](O[C@@H]2O[C@H](COCc3ccccc3)[C@@H](OCc3ccccc3)[C@H](N)[C@H]2OC)[C@H](N)C[C@H](N)[C@H]1O[C@H]1O[C@H](CN)[C@@H](OC)[C@H](OC)[C@H]1OC`, the IC50 was 8.4 µM.
